What was measured:
human recombinant MAGL = human recombinant MAGL (Homo sapiens (Human), UniProt Q99685); experiment: In vitro inhibition of MAGL activity (inhibitor screening kit, 4-nitrophenylacetate); format: biochemical; details: human recombinant MAGL
Outline: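 Percent inhibition derived from absorbance (405-412 nm) of treated wells relative to untreated enzyme control. Human recombinant MAGL with 4-nitrophenylacetate substrate, whose cleavage yields yellow 4-nitrophenol.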

human recombinant FAAH = human recombinant FAAH (Homo sapiens (Human), UniProt O00519); experiment: In vitro inhibition of FAAH activity (fluorescent inhibitor screening kit, AMC arachidonoyl amide); format: biochemical; details: human recombinant FAAH; read-out: Inhibition on FAAH activity (IC50)
Sequence of human recombinant FAAH (O00519 whole entry): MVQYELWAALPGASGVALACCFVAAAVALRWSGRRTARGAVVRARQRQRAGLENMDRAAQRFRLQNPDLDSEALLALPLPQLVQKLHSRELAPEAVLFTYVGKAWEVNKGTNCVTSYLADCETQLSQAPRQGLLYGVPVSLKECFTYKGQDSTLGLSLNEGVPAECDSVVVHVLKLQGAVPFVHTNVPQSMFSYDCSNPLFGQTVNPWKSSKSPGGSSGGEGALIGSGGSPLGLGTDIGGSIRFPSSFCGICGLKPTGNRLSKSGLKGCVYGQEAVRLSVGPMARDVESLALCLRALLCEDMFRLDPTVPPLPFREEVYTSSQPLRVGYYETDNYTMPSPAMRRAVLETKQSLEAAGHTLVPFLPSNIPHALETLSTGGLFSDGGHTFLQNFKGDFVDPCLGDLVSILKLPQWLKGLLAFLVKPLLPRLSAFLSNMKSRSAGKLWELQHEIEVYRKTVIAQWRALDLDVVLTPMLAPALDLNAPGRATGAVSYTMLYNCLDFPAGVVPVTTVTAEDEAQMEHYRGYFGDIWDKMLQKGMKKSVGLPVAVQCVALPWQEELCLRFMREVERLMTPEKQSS
Outline: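 Fluorogenic kit assay: AMC arachidonoyl amide is cleaved by human recombinant FAAH, read at 340-360/450-465 nm. Percent inhibition versus non-treated control; IC50 values derived from multiple compound concentrations where tested.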

Sequence of human recombinant MAGL (Q99685 whole entry): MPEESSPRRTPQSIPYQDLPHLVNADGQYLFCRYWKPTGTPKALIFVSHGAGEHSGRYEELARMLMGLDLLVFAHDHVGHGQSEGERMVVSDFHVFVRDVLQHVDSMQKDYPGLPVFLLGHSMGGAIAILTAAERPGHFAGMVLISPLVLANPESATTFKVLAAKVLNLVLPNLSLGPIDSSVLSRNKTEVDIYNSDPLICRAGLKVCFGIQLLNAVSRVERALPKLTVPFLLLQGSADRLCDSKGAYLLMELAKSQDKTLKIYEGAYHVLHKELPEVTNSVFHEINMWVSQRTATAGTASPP

Compound | IC50 (human recombinant MAGL) [µM] | IC50 (human recombinant FAAH) [nM]
COc1ccc(OC(=O)NC2CCCCC2)cc1-c1cncc(-c2nccs2)c1 [Example 125, 4-methoxy-3-(5-(thiazol-2-yl)pyridin-3-yl)phenyl cyclohexylcarbamate] | > 10 | 100 to 1000
CCCCCCCCNC(=O)Oc1cccc(-c2cncc(C(=O)NN)c2)c1 [Example 25, 3-(5-(hydrazinecarbonyl)pyridin-3-yl)phenyl octylcarbamate] | > 10 | > 1000
CCCCCCCCNC(=O)Oc1cccc(-c2cncc(-c3ccno3)c2)c1 [Example 105, 3-(5-(isoxazol-5-yl)pyridin-3-yl)phenyl octylcarbamate] | > 10 | 1 to 10
CCCCCCCCNC(=O)Oc1cccc(-c2cncc(-c3nncs3)c2)c1 [Example 207, 3-(5-(1,3,4-thiadiazol-2-yl)pyridin-3-yl)phenyl octylcarbamate] | ~10 | 1 to 10
O=C(NCC1CCCCC1)Oc1cccc(-c2cncc(-c3ncno3)c2)c1 [Example 204, 3-(5-(1,2,4-oxadiazol-5-yl)pyridin-3-yl)phenyl (cyclohexylmethyl)carbamate] | > 10 | 10 to 100
COc1ccc(OC(=O)NC2CCCCC2)cc1-c1cncc(-c2ccno2)c1 [Example 113, 3-(5-(isoxazol-5-yl)pyridin-3-yl)-4-methoxyphenyl cyclohexylcarbamate] | > 10 | ~100
CCCCCCCCNC(=O)Oc1cccc(-c2cncc(-c3nccs3)c2)c1 [Example 115] | ~10 | 1 to 10
Cc1cc(OC(=O)NCc2ccccc2)cc(-c2cncc(-c3ncco3)c2)c1 [Example 100, 3-methyl-5-(5-(oxazol-2-yl)pyridin-3-yl)phenyl benzylcarbamate] | > 10 | > 1000
CCCCCCCCNC(=O)Oc1ccc(O)c(-c2cncc(-c3ncn[nH]3)c2)c1 [Example 226, 3-(5-(1H-1,2,4-triazol-5-yl)pyridin-3-yl)-4-hydroxyphenyl octyl carbamate] | > 10 | 1 to 10
O=C(NC1CCCC1)Oc1cccc(-c2cc(-c3nnco3)ccn2)c1 [Example 259, 3-(4-(1,3,4-oxadiazol-2-yl)pyridin-2-yl)phenyl cyclopentylcarbamate] | > 10 | 100 to 1000
O=C(NCC1CCCCC1)Oc1cccc(-c2cncc(-c3cccs3)c2)c1 [Example 60, 3-(5-(thiophen-2-yl)pyridin-3-yl)phenyl (cyclohexylmethyl)carbamate] | > 10 | 10 to 100
O=C(NC1CCCCC1)Oc1ccc(O)c(-c2cncc(-c3ncn[nH]3)c2)c1 [Example 230, 3-(5-(1H-1,2,4-triazol-5-yl)pyridin-3-yl)-4-hydroxyphenyl cyclohexyl carbamate] | > 10 | 100 to 1000
CCCCCCCCNC(=O)Oc1cccc(-c2cncc(-c3ncco3)c2)c1 [Example 73, 3-(5-(oxazol-2-yl)pyridin-3-yl)phenyl octylcarbamate] | > 10 | 1 to 10
O=C(NCc1ccccc1)Oc1cccc(-c2cc(-c3nnco3)ccn2)c1 [Example 258, 3-(4-(1,3,4-oxadiazol-2-yl)pyridin-2-yl)phenyl benzylcarbamate] | > 10 | 100 to 1000
CSc1ccc(OC(=O)NC2CCCCC2)cc1-c1cncc(-c2nnco2)c1 [Example 190, 3-(5-(1,3,4-oxadiazol-2-yl)pyridin-3-yl)-4-(methylthio)phenyl cyclohexylcarbamate] | > 10 | 100 to 1000
O=C(NCc1ccccc1)Oc1cccc(-c2cncc(-c3nncs3)c2)c1 [Example 209, 3-(5-(1,3,4-thiadiazol-2-yl)pyridin-3-yl)phenyl benzylcarbamate] | > 10 | ~100

Compound | IC50 (human recombinant MAGL) [µM] | IC50 (human recombinant FAAH) [nM]
CC1CCC(NC(=O)Oc2ccc(O)c(-c3cncc(-c4nnco4)c3)c2)CC1 (centres unmarked) [Example 159] | > 10 | 10 to 100
CCCCCCCCNC(=O)Oc1cc(-c2cncc(-c3ncco3)c2)ccc1C [Example 92, 2-methyl-5-(5-(oxazol-2-yl)pyridin-3-yl)phenyl octylcarbamate] | > 10 | 100 to 1000
O=C(NC1CCCCC1)Oc1cccc(-c2cncc(-c3nncs3)c2)c1 [Example 211, 3-(5-(1,3,4-thiadiazol-2-yl)pyridin-3-yl)phenyl cyclohexylcarbamate] | > 10 | > 1000
COc1cc(OC(=O)NCc2ccccc2)cc(-c2cncc(-c3nnco3)c2)c1 [Example 176, 3-(5-(1,3,4-oxadiazol-2-yl)pyridin-3-yl)-5-methoxyphenyl benzylcarbamate] | > 10 | > 1000
COc1cc(OC(=O)NC2CCCC2)cc(-c2cncc(-c3nnco3)c2)c1 [Example 177, 3-(5-(1,3,4-oxadiazol-2-yl)pyridin-3-yl)-5-methoxyphenyl cyclopentylcarbamate] | > 10 | 100 to 1000
O=C(NC1CCCCCC1)Oc1cccc(-c2cncc(-c3ncno3)c2)c1 [Example 206, 3-(5-(1,2,4-oxadiazol-5-yl)pyridin-3-yl)phenyl cycloheptylcarbamate] | > 10 | 10 to 100
COc1ccc(OC(=O)NCC2CCCCC2)cc1-c1cncc(-c2nccs2)c1 [Example 122, 4-methoxy-3-(5-(thiazol-2-yl)pyridin-3-yl)phenyl (cyclohexylmethyl)carbamate] | ~10 | 100 to 1000
COc1cc(OC(=O)NC2CCCCC2)cc(-c2cncc(-c3nnco3)c2)c1 [Example 178, 3-(5-(1,3,4-oxadiazol-2-yl)pyridin-3-yl)-5-methoxyphenyl cyclohexylcarbamate] | > 10 | ~100
COc1ccc(OC(=O)NCc2ccccc2)cc1-c1cncc(-c2ccco2)c1 [Example 55, 3-(5-(furan-2-yl)pyridin-3-yl)-4-methoxyphenyl benzylcarbamate] | ~10 | ~1000
CCCCCCCCNC(=O)Oc1cccc(-c2cncc(-c3ccc[nH]3)c2)c1 [Example 35, 3-(5-(1H-pyrrol-2-yl)pyridin-3-yl)phenyl octylcarbamate] | > 10 | 10 to 100
COc1ccc(OC(=O)NC2CCCCCC2)cc1-c1cncc(-c2ccco2)c1 [Example 58, 3-(5-(furan-2-yl)pyridin-3-yl)-4-methoxyphenyl cycloheptylcarbamate] | > 10 | 100 to 1000
O=C(NC1CCCC1)Oc1cccc(-c2cncc(-c3nnn[nH]3)c2)c1 [Example 241, 3-(5-(1H-tetrazol-5-yl)pyridin-3-yl)phenyl cyclopentylcarbamate] | > 10 | > 1000
O=C(NCc1ccccc1)Oc1cc(O)cc(-c2cncc(-c3nnco3)c2)c1 [Example 162, 3-(5-(1,3,4-oxadiazol-2-yl)pyridin-3-yl)-5-hydroxyphenyl benzylcarbamate] | > 10 | ~100
O=C(NCc1ccccc1)Oc1cccc(-c2cncc(-c3ncn[nH]3)c2)c1 [Example 221, 3-(5-(1H-1,2,4-triazol-5-yl)pyridin-3-yl)phenyl benzyl carbamate] | > 10 | 100 to 1000
COc1ccc(OC(=O)NCc2ccccc2)cc1-c1cncc(-c2cccs2)c1 [Example 67, 4-methoxy-3-(5-(thiophen-2-yl)pyridin-3-yl)phenyl benzylcarbamate] | > 10 | > 1000

Reference: patent publication US20250129027A1 (APOGEE PHARMACEUTICALS, INC., priority 2023, published 2025)
